“Also recorded” adds a separate entry of the source. Like-named read-outs stand apart in the source and are kept apart here. Marks after values point to notes of the source that are not given here.
Assays:
lewis lung cancer = settings: 10 mg/kg i.p. once daily
Experimental: C57Bl/6 mice with lewis lung cancer were sacrificed and the tumor was removed. The tumor cell suspension (5×10^6 cell/mL) was prepared in a sterile condition. The suspension (0.2 mL/mice, 1×10^6 tumor cell) was inoculated subcutaneously into the axillary of 24 C57Bl/6 mice. […] From the 7th day after the implantation, the long diameter and short diameter of tumor was measured every 2 days. Tumor volume was calculated by the formula (½)×long diameter×short diameter^2. Drug was withdrawn on the eighteenth day after the implantation. All mice were then sacrificed and the body weight was measured. The tumors, spleen and lung were removed and weighed. The lungs were fixed in Bouin's fixative for 24 h. The numbers of lung metastasis nodule were counted, and the statistics was evaluated by Mann-Whitney U test.

Human breast cancer MX-1 = assay: Xenograft tumor nude mice screening, MX-1; format: in vivo, BALB/c nu mice; settings: 30 mg/kg i.p., 10~12 times
Experimental: (§1) Certificate NO. SCXK (BeiJing) 2005-0013. • Cell lines: The tumor cell lines were passaged and cultured by our Lab, some of them was obtained from ATCC. • The tumor cell lines included: Human breast cancer MX-1 and MCF-7. • Human ovarian cancer A2780, and clear Human ovarian cell cancer ES-2, • Human lung cancer H1975 and A549. Experiment Method: • 1. […] The administration dose and treatment progress was determined based from the preliminary experiments, which had solid effects and the shortest treatment period—the dose of 30 mg/kg/day, and the administration duration time of every lot experiment was not more than 12 days.

[1] = tested on: Human breast cancer MCF-7; assay: Xenograft tumor nude mice screening, MCF-7; format: in vivo, BALB/c nu mice
Experimental: as §1

From the text for Human lung cancer H460: Through cell culture in vitro, the tumor was inoculated on nude mice, the tumor grew and passaged for the experiment use. • Animals: BALB/c nude mice, ♀, 4˜5 weeks old, were obtained from the Experimental Lab, Chinese Academy of Medical Science, Certificate NO. […] Experiment Method:
The tumor-bearing mice with good tumor growth and good general physical condition were selected and sacrificed. Tumor was isolated in a sterile condition and cut into fragments (diameter for about 2-3 mm) by surgical knife. The fragments were then hypodermically inoculated in posterior axillary of nude mice by means of a trocar.
After the tumors grew naturally for eight days, the average volume of tumors reaches 130 mm^3. The length and width of tumor was measured using vernier calipers, and divided into groups by the tumor volume.
The mice were divided into five groups for observation, each groups had eight mice. […] Respective drug was administrated for each group from the grouping day.
The experiment was terminated 24 hours after the last administration.
During the experimentation, the tumors sizes (length and width) and body weights of mice were measured once every three days. The tumor volume (TV) and relative tumor volume (RTV) were calculated according to the method for references, and the tumor volume growth tendency chart was plotted.
At the end of the experiment, the mice were sacrificed. Tumors were removed and weighed, and the inhibition rate of the tumor growth by drugs was calculated. Statistical significance of the tumor weight, tumor volume and RTV level were evaluated by t-test.
[formula] • (C, average tumor weight of control group; T, average tumor weight of administrated group) • Tumor Volume (TV)=length×width^2/2. • Relative Tumor Volume (RTV) formula: Vt/Vo • (Vo is the volume of TV at the beginning of the grouping, and Vt is the volume of TV at measure time) • Anti-tumor activities were evaluated by Tumor Relative proliferation Rate T/C (%)
[formula] • Therapeutic effect evaluation standard: T/C (%)>40, was judged as invalid; • T/C (%)≦40, and through statistical evaluation P<0.05, was judged as valid.

Compound: CC(=O)O[C@H]1C(=O)[C@@]2(C)[C@H]([C@H](OC(=O)c3ccccc3)[C@]3(O)C[C@H](OC(=O)[C@H](OC(=O)CCC(=O)NCCCCC(NC(=O)CC[C@H](NC(=O)C(C)NC(=O)/C=C/c4ccc(Cl)cc4)C(N)=O)C(N)=O)[C@@H](NC(=O)c4ccccc4)c4ccccc4)C(C)=C1C3(C)C)[C@]1(OC(C)=O)CO[C@@H]1C[C@@H]2O (some centres unmarked) [MTC-220]
- Lung weight (lewis lung cancer): 152 ± 37 mg
- Toxic and side effect (lewis lung cancer): no toxic and side effect
- Inhibition of tumor growth (in words) (Human breast cancer MX-1): weak
- Body weight Beginning (Human lung cancer H460; 5 mg/kg × 25, i.p.): 18.0 ± 0.95 g
- Body weight End (Human lung cancer H460; 5 mg/kg × 25, i.p.): 21.9 ± 1.10 g
- RTV (Human lung cancer H460; 5 mg/kg × 25, i.p.): 32.0 ± 8.27
- T/C (Human lung cancer H460; 5 mg/kg × 25, i.p.): 96.2%
- TGI (Human lung cancer H460; 5 mg/kg × 25, i.p.): 2.15%
- Tumor volume Beginning (Human lung cancer H460; 5 mg/kg × 25, i.p.): 125 ± 36.8 mm^3
- Tumor volume End (Human lung cancer H460; 5 mg/kg × 25, i.p.): 3737 ± 591.0 mm^3
- Tumor weight (Human lung cancer H460; 5 mg/kg × 25, i.p.): 2.91 ± 0.695 g
- Growth rate of tumor volume compared to negative control (Human lung cancer H460; 5 mg/kg, 25 days successive administration): not significantly different
- Body weight Beginning (Human lung cancer H460; 10 mg/kg × 25, i.p.): 18.2 ± 0.70 g
- Body weight End (Human lung cancer H460; 10 mg/kg × 25, i.p.): 21.4 ± 1.15 g
- RTV (Human lung cancer H460; 10 mg/kg × 25, i.p.): 27.7 ± 6.81
- T/C (Human lung cancer H460; 10 mg/kg × 25, i.p.): 83.1%
- TGI (Human lung cancer H460; 10 mg/kg × 25, i.p.): 17.3%
- Tumor volume Beginning (Human lung cancer H460; 10 mg/kg × 25, i.p.): 125 ± 43.0 mm^3
- Tumor volume End (Human lung cancer H460; 10 mg/kg × 25, i.p.): 3274 ± 797.0 mm^3
- Tumor weight (Human lung cancer H460; 10 mg/kg × 25, i.p.): 2.46 ± 0.624 g
- Tumor volume inhibition (Human lung cancer H460; 10 mg/kg, end of the experiment): 18.8%
- Body weight Beginning (Human lung cancer H460; 20 mg/kg × 25, i.p.): 17.8 ± 1.10 g
- Body weight End (Human lung cancer H460; 20 mg/kg × 25, i.p.): 18.9 ± 2.49 g
- RTV (Human lung cancer H460; 20 mg/kg × 25, i.p.): 16.7 ± 9.93
- T/C (Human lung cancer H460; 20 mg/kg × 25, i.p.): 50.1%
- TGI (Human lung cancer H460; 20 mg/kg × 25, i.p.): 52.9%
- Tumor volume Beginning (Human lung cancer H460; 20 mg/kg × 25, i.p.): 123 ± 44.6 mm^3
- Tumor volume End (Human lung cancer H460; 20 mg/kg × 25, i.p.): 1963 ± 641.9 mm^3
- Tumor weight (Human lung cancer H460; 20 mg/kg × 25, i.p.): 1.40 ± 0.466 g
- Body weight Beginning ([1]; 30 mg/kg × 12, i.p.): 20.8 ± 1.14 g
- Body weight End ([1]; 30 mg/kg × 12, i.p.): 23.3 ± 1.22 g
- RTV ([1]; 30 mg/kg × 12, i.p.): 0**
- T/C ([1]; 30 mg/kg × 12, i.p.): 0%
- TGI ([1]; 30 mg/kg × 12, i.p.): 100%
- Tumor volume Beginning ([1]; 30 mg/kg × 12, i.p.): 142 ± 73.5 mm^3
- Tumor volume End ([1]; 30 mg/kg × 12, i.p.): 0 mm^3
- Tumor weight ([1]; 30 mg/kg × 12, i.p.): 0** g
- Tumor observation (in words) ([1]; 30 mg/kg/day, 10 administrations, then withdrawal): disappeared one after another; also recorded: disappeared after successive administration for 10 times

— patent publication US9085605B2, “Chemical synthesis and anti-tumor and anti-metastatic effects of dual functional conjugate” (Shenzhen Salubris Pharmaceuticals Co., Ltd., priority 2010, dated 2015)
